Measurements reported in patent US9249102B2 (priority 2012, dated 2016).
Like-named read-outs stand apart in the source and are kept apart here.

Legend:
[1] = system: Haemonchus contortus; assay: Method A: Haemonchus contortus L1 larvae, microtitre plate screen; details: 96 h, read-out: motility inhibition
[2] = system: Cooperia oncophora; assay: Method C: Cooperia oncophora L1 larvae in vitro; details: 96 h, read-out: inhibition of motility
[3] = system: Haemonchus contortus; assay: Method D: Haemonchus contortus in vivo in Mongolian jirds; set-up: species or system Mongolian jirds (Meriones unguiculatus); details: po, 72 h, read-out: reduction in nematode infestation
[4] = system: microfilaria of Dirofilaria immitis; assay: Method F: microfilaria of Dirofilaria immitis, survival at 24 hours
[5] = Method G: permeability in the Caco-2/TC7 in vitro model; details: human, Caco-2, pH 6.5
[6] = system: anthelmintic-resistant isolate of Haemonchus contortus; assay: Method B: anthelmintic-resistant (benzimidazole-resistant) isolate of Haemonchus contortus, conditions of method A; details: H. contortus isolate functionally resistant against benzimidazoles
[7] = survival of microfilaria at 24 hours

Question: What does the source list for `O=C(CO[C@H]1CC[C@H](Nc2ccc([N+](=O)[O-])c(C(F)(F)F)c2)CC1)N1CCN(Cc2cc3cc(C(F)(F)F)ccc3o2)CC1` [Compound 180, 2-[(4-[[4-nitro-3-(trifluoromethyl)phenyl]amino]cyclohexyl)oxy]-1-(4-[[5-(trifluoromethyl)-1-benzofuran-2-yl]methyl]piperazin-1-yl)ethan-1-one]?
Answer: inhibition at 5 µg/mL [1]: ≥ 90%; inhibition at 5 µg/mL [2]: ≥ 90%; inhibition in vivo at 30 mg/kg [3]: > 90%; EC50 [4, 7]: < 1 mg/L

Question: Which inhibition at 5 µg/mL [1] does the source give for `O=C(CO[C@H]1CC[C@H](Nc2ccc([N+](=O)[O-])c(C(F)(F)F)c2)CC1)N1CCN(Cc2nc3cc(F)ccc3s2)CC1` [Compound 235, 1-(4-((5-fluorobenzo[d]thiazol-2-yl)methyl)piperazin-1-yl)-2-(-4-(4-nitro-3-(trifluoromethyl)phenylamino)cyclohexyloxy)ethanone] here?
Answer: ≥ 90%

Question: And the inhibition at 5 µg/mL [2]?
Answer: ≥ 90%

Question: And the inhibition in vivo at 30 mg/kg [3]?
Answer: 70 to 90%

Question: What about the EC50 [4, 7] of the same compound?
Answer: < 1 mg/L

Question: And the Papp A→B at 20 μM [5]?
Answer: 138 nm/s

Question: For `CN(c1ccc([N+](=O)[O-])c(C(F)(F)F)c1)[C@H]1CC[C@H](OCC(=O)N2CCN(c3ccc4cc(C(F)(F)F)ccc4n3)CC2)CC1` [Compound 245, 2-[[(1r,4r)-4-[methyl[4-nitro-3-(trifluoromethyl)phenyl]amino]cyclohexyl]oxy]-1-[4-[6-(trifluoromethyl)quinolin-2-yl]piperazin-1-yl]ethan-1-one], which inhibition at 5 µg/mL [1] is on record?
Answer: ≥ 90%

Question: And the inhibition at 5 µg/mL [2]?
Answer: ≥ 90%

Question: What about the inhibition in vivo at 30 mg/kg [3] of the same compound?
Answer: > 90%

Question: What about the EC50 [4] of the same compound?
Answer: < 1 mg/L

Question: What does the source list for `CN(c1ccc([N+](=O)[O-])c(C(F)(F)F)c1)[C@H]1CC[C@H](OCC(=O)N2CCN(CC3Cc4cc(F)ccc4O3)CC2)CC1` (stereo partly drawn) [Compound 261, 1-[4-(5-fluoro-2,3-dihydro-benzofuran-2-ylmethyl)-piperazin-1-yl]-2-{4-[methyl-(4-nitro-3-trifluoromethyl-phenyl)-amino]-cyclohexyloxy}-ethanone]?
Answer: inhibition at 5 µg/mL [1]: ≥ 90%; inhibition at 5 µg/mL [2]: ≥ 90%; inhibition in vivo at 30 mg/kg [3]: > 90%; EC50 [4, 7]: < 0.1 mg/L; Papp A→B at 20 μM [5]: 82 nm/s

Question: With `N#Cc1ccc(N[C@H]2CC[C@H](OCC(=O)N3CCN(c4ccc5cc(Cl)ccc5n4)CC3)CC2)cc1C(F)(F)F` [Compound 272, 2-[(4-[[4-cyano-3-(trifluoromethyl)phenyl]amino]cyclohexyl)oxy]-1-[4-(6-chloroquinolin-2-yl)piperazin-1-yl]ethan-1-one] as the compound, how does the inhibition at 5 µg/mL [1] read?
Answer: ≥ 90%

Question: What about the inhibition at 5 µg/mL [2] of the same compound?
Answer: ≥ 90%

Question: What about the inhibition in vivo at 30 mg/kg [3] of the same compound?
Answer: 70 to 90%

Question: What about the EC50 [4, 7] of the same compound?
Answer: < 1 mg/L

Question: Which inhibition at 5 µg/mL [1] does the source give for `N#Cc1ccc(N[C@H]2CC[C@H](OCC(=O)N3CCN(c4ccc5cc(C(F)(F)F)ccc5n4)CC3)CC2)cc1C(F)(F)F` [Compound 273, 2-[(4-[[4-cyano-3-(trifluoromethyl)phenyl]amino]cyclohexyl)oxy]-1-[4-[6-(trifluoromethyl)quinolin-2-yl]piperazin-1-yl]ethan-1-one] here?
Answer: ≥ 90%

Question: And the inhibition at 5 µg/mL [2]?
Answer: ≥ 90%

Question: And the inhibition in vivo at 30 mg/kg [3]?
Answer: > 90%

Question: What about the EC50 [4, 7] of the same compound?
Answer: < 1 mg/L

Question: With `N#Cc1ccc(N[C@H]2CC[C@H](OCC(=O)N3CCN(c4ccc5cc(Cl)ccc5c4)CC3)CC2)cc1C(F)(F)F` [Compound 278] as the compound, how does the inhibition at 5 µg/mL [1] read?
Answer: ≥ 90%

Question: And the inhibition at 5 µg/mL [2]?
Answer: ≥ 90%

Question: What about the inhibition in vivo at 30 mg/kg ([3]; in Meriones unguiculatus) of the same compound?
Answer: 70 to 90%

Question: And the EC50 [4, 7]?
Answer: < 1 mg/L

Question: What does the source list for `O=C(CO[C@H]1CC[C@H](Nc2ccc([N+](=O)[O-])c(C(F)(F)F)c2)CC1)N1CCN(Cc2nc3cc(C(F)(F)F)ccc3s2)CC1` [Compound 302, 2-[4-[4-nitro-3-(trifluoromethyl)anilino]cyclohexoxy]-1-[4-[[5-(trifluoromethyl)-1,3-benzothiazol-2-yl]methyl]piperazin-1-yl]ethanone]?
Answer: inhibition at 5 µg/mL [1]: ≥ 90%; inhibition at 5 µg/mL [2]: ≥ 90%; inhibition in vivo at 30 mg/kg [3]: > 90%; EC50 [4, 7]: < 0.1 mg/L

Question: Which results are given for `O=C(CO[C@H]1CC[C@H](Nc2ccc([N+](=O)[O-])c(C(F)(F)F)c2)CC1)N1CCN(Cc2cc3cc(F)c(F)cc3o2)CC1` [Compound 325, 2-[(4-[[4-nitro-3-(trifluoromethyl)phenyl]amino]cyclohexyl)-oxy]1-[4-(5,6-difluorobenzofuran-2-ylmethyl)piperazin-1-yl]ethan-1-one]?
Answer: inhibition at 5 µg/mL [1]: ≥ 90%; inhibition at 5 µg/mL [2]: ≥ 90%; inhibition in vivo at 30 mg/kg [3]: 70 to 90%; Papp A→B at 20 μM [5]: 90 nm/s

Question: What does the source list for `O=C(CO[C@H]1CC[C@H](Nc2ccc([N+](=O)[O-])c(C(F)(F)F)c2)CC1)N1CCN(Cc2cnc3cc(C(F)(F)F)ccc3c2)CC1` [Compound 327, 2-[4-(4-nitro-3-trifluoromethyl-phenylamino)-cyclohexyloxy]-1-[4-(7-trifluoromethyl-quinolin-3-ylmethyl)-piperazin-1-yl]-ethanone]?
Answer: inhibition at 5 µg/mL [1]: ≥ 90%; inhibition in vivo at 30 mg/kg [3]: 70 to 90%; Papp A→B at 20 μM [5]: 69 nm/s

Question: With `c1ccc2[nH]c(-c3cscn3)nc2c1` [thiabendazole] as the compound, how does the “fold resistance of the isolate” value [6] read?
Answer: 127 fold
